According to ChEMBL document CHEMBL1687784, “Frequency of spontaneous resistance to fosfomycin combined with different antibiotics in Pseudomonas aeruginosa” (2010):
In brackets after ≈: the same amount, converted by molar mass.

Key:
[1] = tested on: Pseudomonas aeruginosa; assay: Antimicrobial activity against Pseudomonas aeruginosa PA14 mutS gene hypermutant by EUCAST method; type: functional
[2] = tested on: Pseudomonas aeruginosa; assay: Antimicrobial activity against Pseudomonas aeruginosa PA14 by EUCAST method; type: functional

| Compound | MIC [1] | MIC [2] |
| --- | --- | --- |
| NCC[C@H](O)C(=O)N[C@@H]1C[C@H](N)[C@@H](O[C@H]2O[C@H](CN)[C@@H](O)[C@H](O)[C@H]2O)[C@H](O)[C@H]1O[C@H]1O[C@H](CO)[C@@H](O)[C@H](N)[C@H]1O [AMIKACIN] | 1 µg/mL (≈ 1.71 µM) | 1 µg/mL (≈ 1.71 µM) |
| CC(C)(O/N=C(\C(=O)N[C@@H]1C(=O)N2C(C(=O)[O-])=C(C[n+]3ccccc3)CS[C@H]12)c1csc(N)n1)C(=O)O [CEFTAZIDIME] | 1 µg/mL (≈ 1.83 µM) | 1 µg/mL (≈ 1.83 µM) |
| O=C(O)c1cn(C2CC2)c2cc(N3CCNCC3)c(F)cc2c1=O [CIPROFLOXACIN] | 0.1 µg/mL (≈ 0.302 µM) | 0.1 µg/mL (≈ 0.302 µM) |
| C[C@@H]1O[C@@H]1P(=O)(O)O [FOSFOMYCIN] | 8 µg/mL (≈ 57.9 µM) | 8 µg/mL (≈ 57.9 µM) |
| C[C@@H](O)[C@H]1C(=O)N2C(C(=O)O)=C(SCCNC=N)C[C@H]12 [IMIPENEM ANHYDROUS] | 0.5 µg/mL (≈ 1.67 µM) | 0.5 µg/mL (≈ 1.67 µM) |
| C[C@@H](O)[C@H]1C(=O)N2C(C(=O)O)=C(S[C@@H]3CN[C@H](C(=O)N(C)C)C3)[C@H](C)[C@H]12 [MEROPENEM] | 0.25 µg/mL (≈ 0.652 µM) | 0.25 µg/mL (≈ 0.652 µM) |
| NC[C@H]1O[C@H](O[C@H]2[C@H](O)[C@@H](O[C@H]3O[C@H](CO)[C@@H](O)[C@H](N)[C@H]3O)[C@H](N)C[C@@H]2N)[C@H](N)C[C@@H]1O [TOBRAMYCIN] | 1 µg/mL (≈ 2.14 µM) | 1 µg/mL (≈ 2.14 µM) |
| COLISTIN | 0.5 µg/mL | 0.5 µg/mL |
